Source: patent US20240209028A1, “CNP COMPOUNDS” (priority 2022, published 2024)
Starred links: 1 amine or outer side, 2 acyl side, 3 side chain; linkers in the order of their positions; H or OH if unused. Positions of bridges follow the written chain, without caps; N, C: chain ends. Residues, ends and D or L forms follow the SMILES beside them. *: point of attachment. C18 diacid = O=C(O)CCCCCCCCCCCCCCCCC(=O)*; γGlu = O=C(O)[C@H](CCC(=O)[*:2])N[*:1]; AEEA = NCCOCCOCC(=O)O

Key:
[1] = High-Molecular-Weight-Protein (HMWP) formation by SEC-UPLC; assay type: physicochemical; details: increase over two weeks at 37° C.
Summary of the method: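 Formulations at pH 4.0 or 6.5 incubated quiescently for two weeks at 37 °C; HMWP (peaks eluting before monomer, % of total peptide area) measured by SEC-UPLC, pH 2.4 mobile phase with 50% isopropanol, 50 °C, UV 215 nm. Value is HMWP increase, normalized to two weeks if needed.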

[2] = PK of CNP compounds after i.v. and s.c. administration to rats; details: male, Sprague Dawley, in vivo, iv, rat, i.v., about 100 nmol/kg; for clearance: read-out: Cl (L/hr/kg), i.v. administration (converted); for half-life: read-out: T½ (hr), i.v. administration (converted)
Summary of the method: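 Plasma exposure was quantified by protein precipitation and turboflow LC-MS/MS in SRM mode. Rats received either 100 nmol/kg intravenously or 300 nmol/kg subcutaneously, with sublingual blood taken at baseline and at points up to 72 h. Per-animal NCA gave clearance as Dose/AUCinf, and results are averaged over 4-6 animals.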

SMILES | 2-Week HMWP formation at pH 4.0 (%), % relative to total peak area [1] | 2-Week HMWP formation at pH 6.5 (%), % relative to total peak area [1] | clearance [2] | half-life [2]
CC[C@H](C)[C@@H]1NC(=O)[C@H](CCCNC(=N)N)NC(=O)[C@H](CC(=O)O)NC(=O)[C@H](CC(C)C)NC(=O)[C@@H]2CCCN2C(=O)[C@H](CC(C)C)NC(=O)CNC(=O)[C@H](Cc2ccccc2)NC(=O)[C@@H](NC(=O)CNC(=O)[C@H](CCC(N)=O)NC(=O)[C@H](CO)NC(=O)CNC(=O)CNC(=O)[C@H](CCCCN)NC(=O)[C@H](CCCCN)NC(=O)[C@H](CCC(N)=O)NC(=O)[C@H](C)NC(=O)CNC(=O)[C@H](CCCCN)NC(=O)[C@H](Cc2ccc(O)cc2)NC(=O)COCCOCCNC(=O)COCCOCCNC(=O)COCCOCCNC(=O)COCCOCCNC(=O)CC[C@H](NC(=O)CC[C@H](NC(=O)CCCCCCCCCCCCCCCCC(=O)O)C(=O)O)C(=O)O)CSSC[C@@H](C(=O)O)NC(=O)CNC(=O)[C@H](CC(C)C)NC(=O)CNC(=O)[C@H](CO)NC(=O)[C@H](CC(C)C)NC(=O)[C@H](CO)NC(=O)CNC1=O [compound 9435] ({C18 diacid-γGlu-γGlu-AEEA-AEEA-AEEA-AEEA}-YKGAQKKGGSQGCFGLPLDRIGSLSGLGC-OH; disulfide 13-29; C-terminus assumed) | 1.07% | 1.93% | 0.00458 L/h/kg | 10.4 h
CC[C@H](C)[C@@H]1NC(=O)[C@H](CCCNC(=N)N)NC(=O)[C@H](CC(=O)O)NC(=O)[C@H](CC(C)C)NC(=O)[C@@H]2CCCN2C(=O)[C@H](CC(C)C)NC(=O)CNC(=O)[C@H](Cc2ccccc2)NC(=O)[C@@H](NC(=O)CNC(=O)[C@H](CO)NC(=O)[C@H](CO)NC(=O)[C@@H](NC(=O)CNC(=O)[C@@H](NC(=O)[C@H](Cc2c[nH]cn2)NC(=O)[C@H](CCC(N)=O)NC(=O)[C@H](C)NC(=O)CNC(=O)[C@H](Cc2c[nH]cn2)NC(=O)[C@H](Cc2ccc(O)cc2)NC(=O)[C@H](CCCCN)NC(=O)[C@H](CCCNC(=N)N)NC(=O)[C@H](C)NC(=O)COCCOCCNC(=O)COCCOCCNC(=O)CC[C@H](NC(=O)CCCCCCCCCCCCCCCCC(=O)O)C(=O)O)[C@@H](C)O)C(C)C)CSSC[C@@H](C(=O)O)NC(=O)CNC(=O)[C@H](CC(C)C)NC(=O)CNC(=O)[C@H](CO)NC(=O)[C@H](CC(C)C)NC(=O)[C@H](CO)NC(=O)CNC1=O [compound 1351] ({C18 diacid-γGlu-AEEA-AEEA}-ARKYHGAQHTGVSSGCFGLPLDRIGSLSGLGC-OH; disulfide 16-32) | 1.94% | – | 0.0093 L/h/kg | 6.07 h
CC[C@H](C)[C@@H]1NC(=O)[C@H](CCCNC(=N)N)NC(=O)[C@H](CC(=O)O)NC(=O)[C@H](CC(C)C)NC(=O)[C@@H]2CCCN2C(=O)[C@H](CC(C)C)NC(=O)CNC(=O)[C@H](Cc2ccccc2)NC(=O)[C@@H](NC(=O)CNC(=O)[C@H](CO)NC(=O)[C@H](CO)NC(=O)[C@H](CC(C)C)NC(=O)CNC(=O)[C@H](CCCCN)NC(=O)[C@H](CCCCN)NC(=O)[C@H](CCC(N)=O)NC(=O)[C@H](C)NC(=O)CNC(=O)[C@H](CCC(=O)O)NC(=O)[C@H](Cc2ccc(O)cc2)NC(=O)COCCOCCNC(=O)COCCOCCNC(=O)COCCOCCNC(=O)COCCOCCNC(=O)CC[C@H](NC(=O)CCCCCCCCCCCCCCCCC(=O)O)C(=O)O)CSSC[C@@H](C(=O)O)NC(=O)CNC(=O)[C@H](CC(C)C)NC(=O)CNC(=O)[C@H](CO)NC(=O)[C@H](CC(C)C)NC(=O)[C@H](CO)NC(=O)CNC1=O [compound 1392] ({C18 diacid-γGlu-AEEA-AEEA-AEEA-AEEA}-YEGAQKKGLSSGCFGLPLDRIGSLSGLGC-OH; disulfide 13-29) | – | 0.33% | 0.00799 L/h/kg | 5.72 h
CC[C@H](C)[C@@H]1NC(=O)[C@H](CCCNC(=N)N)NC(=O)[C@H](CC(=O)O)NC(=O)[C@H](CC(C)C)NC(=O)[C@@H]2CCCN2C(=O)[C@H](CC(C)C)NC(=O)CNC(=O)[C@H](Cc2ccccc2)NC(=O)[C@@H](NC(=O)CNC(=O)[C@H](CO)NC(=O)[C@H](CO)NC(=O)[C@H](CC(C)C)NC(=O)CNC(=O)[C@@H](NC(=O)[C@H](Cc2c[nH]cn2)NC(=O)[C@H](CCC(N)=O)NC(=O)[C@H](C)NC(=O)CNC(=O)[C@H](Cc2c[nH]cn2)NC(=O)[C@H](Cc2ccc(O)cc2)NC(=O)COCCOCCNC(=O)COCCOCCNC(=O)CC[C@H](NC(=O)CCCCCCCCCCCCCCCCC(=O)O)C(=O)O)[C@@H](C)O)CSSC[C@@H](C(=O)O)NC(=O)CNC(=O)[C@H](CC(C)C)NC(=O)CNC(=O)[C@H](CO)NC(=O)[C@H](CC(C)C)NC(=O)[C@H](CO)NC(=O)CNC1=O [compound 1304] ({C18 diacid-γGlu-AEEA-AEEA}-YHGAQHTGLSSGCFGLPLDRIGSLSGLGC-OH; disulfide 13-29) | – | 1.55% | – | –
CC[C@H](C)[C@@H]1NC(=O)[C@H](CCCNC(=N)N)NC(=O)[C@H](CCC(=O)O)NC(=O)[C@H](CC(C)C)NC(=O)[C@@H]2CCCN2C(=O)[C@H](CC(C)C)NC(=O)CNC(=O)[C@H](Cc2ccccc2)NC(=O)[C@@H](NC(=O)CNC(=O)[C@H](CCC(N)=O)NC(=O)[C@H](CO)NC(=O)CNC(=O)CNC(=O)[C@H](CCCCN)NC(=O)[C@H](CCCCN)NC(=O)[C@H](CCC(N)=O)NC(=O)[C@H](C)NC(=O)CNC(=O)[C@H](CCCCN)NC(=O)[C@H](Cc2ccc(O)cc2)NC(=O)COCCOCCNC(=O)COCCOCCNC(=O)COCCOCCNC(=O)COCCOCCNC(=O)CC[C@H](NC(=O)CC[C@H](NC(=O)CCCCCCCCCCCCCCCCC(=O)O)C(=O)O)C(=O)O)CSSC[C@@H](C(=O)O)NC(=O)CNC(=O)[C@H](CC(C)C)NC(=O)CNC(=O)[C@H](CO)NC(=O)[C@H](CC(C)C)NC(=O)[C@H](CO)NC(=O)CNC1=O [compound 1489] ({C18 diacid-γGlu-γGlu-AEEA-AEEA-AEEA-AEEA}-YKGAQKKGGSQGCFGLPLERIGSLSGLGC-OH; disulfide 13-29) | 2.12% | – | – | –
CC[C@H](C)[C@@H]1NC(=O)[C@H](CCCNC(=N)N)NC(=O)[C@H](CC(=O)O)NC(=O)[C@H](CC(C)C)NC(=O)[C@@H]2CCCN2C(=O)[C@H](CC(C)C)NC(=O)CNC(=O)[C@H](Cc2ccccc2)NC(=O)[C@@H](NC(=O)CNC(=O)[C@H](CCC(N)=O)NC(=O)[C@H](CO)NC(=O)CNC(=O)CNC(=O)[C@H](CCCCN)NC(=O)[C@H](Cc2c[nH]cn2)NC(=O)[C@H](CCC(N)=O)NC(=O)[C@H](C)NC(=O)CNC(=O)[C@H](CCC(=O)O)NC(=O)[C@H](Cc2ccc(O)cc2)NC(=O)[C@H](CCCCN)NC(=O)[C@H](CCCNC(=N)N)NC(=O)[C@H](C)NC(=O)COCCOCCNC(=O)COCCOCCNC(=O)COCCOCCNC(=O)COCCOCCNC(=O)CC[C@H](NC(=O)CC[C@H](NC(=O)CCCCCCCCCCCCCCCCC(=O)O)C(=O)O)C(=O)O)CSSC[C@@H](C(=O)O)NC(=O)CNC(=O)[C@H](CC(C)C)NC(=O)CNC(=O)[C@H](CO)NC(=O)[C@H](CC(C)C)NC(=O)[C@H](CO)NC(=O)CNC1=O [compound 1432] ({C18 diacid-γGlu-γGlu-AEEA-AEEA-AEEA-AEEA}-ARKYEGAQHKGGSQGCFGLPLDRIGSLSGLGC-OH; disulfide 16-32) | – | 2.89% | – | –
CC[C@H](C)[C@@H]1NC(=O)[C@H](CCCNC(=N)N)NC(=O)[C@H](CC(=O)O)NC(=O)[C@H](CC(C)C)NC(=O)[C@@H]2CCCN2C(=O)[C@H](CC(C)C)NC(=O)CNC(=O)[C@H](Cc2ccccc2)NC(=O)[C@@H](NC(=O)CNC(=O)[C@H](CCCCN)NC(=O)[C@H](CO)NC(=O)[C@H](CC(C)C)NC(=O)CNC(=O)[C@H](CCCCN)NC(=O)[C@H](CCCCN)NC(=O)[C@H](CCC(N)=O)NC(=O)[C@H](C)NC(=O)CNC(=O)[C@H](CCCCN)NC(=O)[C@H](Cc2ccc(O)cc2)NC(=O)[C@H](CCCCN)NC(=O)[C@H](CCCNC(=N)N)NC(=O)[C@H](C)NC(=O)[C@H](CCC(N)=O)NC(=O)[C@@H]2CCCN2C(=O)[C@H](Cc2c[nH]cn2)NC(=O)[C@H](CCC(=O)O)NC(=O)[C@H](CCC(N)=O)NC(=O)COCCOCCNC(=O)COCCOCCNC(=O)CC[C@H](NC(=O)CC[C@H](NC(=O)CC[C@H](NC(=O)CC[C@H](NC(=O)CC[C@H](NC(=O)CCCCCCCCCCCCCCCCC(=O)O)C(=O)O)C(=O)O)C(=O)O)C(=O)O)C(=O)O)CSSC[C@@H](C(=O)O)NC(=O)CNC(=O)[C@H](CC(C)C)NC(=O)CNC(=O)[C@H](CO)NC(=O)[C@H](CC(C)C)NC(=O)[C@H](CO)NC(=O)CNC1=O [compound 1474] ({C18 diacid-γGlu-γGlu-γGlu-γGlu-γGlu-AEEA-AEEA}-QEHPQARKYKGAQKKGLSKGCFGLPLDRIGSLSGLGC-OH; disulfide 21-37; C-terminus assumed) | 1.6% | – | – | –
